Data taken from the CheMixHub viscosity set.
Values joined by “and” are separate entries in the source; they are usually repeats but may differ in a detail not shown here. Equal values may be shown once. ± gives the uncertainty stated by the source.

Assay: xn = mol fraction of the nth substance listed

OCCNCCO + O
viscosity (293.15 K, 101 kPa, x1 = 0.15): 12.5 ± 0.25 mPa·s | viscosity (293.15 K, 101 kPa, x1 = 0.34): 91.2 ± 2.2 mPa·s | viscosity (293.15 K, 101.3 kPa, x1 = 0.02): 1.499 mPa·s | viscosity (293.15 K, 101.3 kPa, x1 = 0.04): 2.204 mPa·s | viscosity (293.15 K, 101.3 kPa, x1 = 0.1): 6.515 ± 1.7 mPa·s and 12.37 ± 1.8 mPa·s | viscosity (293.15 K, 101.3 kPa, x1 = 0.2): 25.81 ± 2.2 mPa·s | viscosity (293.15 K, 101.3 kPa, x1 = 0.3): 53.68 ± 4.6 mPa·s | viscosity (293.15 K, 101.3 kPa, x1 = 0.4): 143.3 ± 18 mPa·s | viscosity (293.15 K, 101.3 kPa, x1 = 0.6): 353.7 ± 71 mPa·s | viscosity (293.15 K, 101.33 kPa, x1 = 0.019): 1.427 ± 0.019 mPa·s | viscosity (293.15 K, 101.33 kPa, x1 = 0.041): 2.171 ± 0.028 mPa·s | viscosity (298.15 K, 101 kPa, x2 = 0.9): 5.29 ± 0.05 mPa·s | viscosity (298.15 K, 101 kPa, x2 = 0.9316): 3.1 ± 0.03 mPa·s | viscosity (298.15 K, 101.3 kPa, x1 = 0.02): 1.259 mPa·s | viscosity (298.15 K, 101.3 kPa, x1 = 0.04): 1.875 mPa·s | viscosity (298.15 K, 101.3 kPa, x1 = 0.07): 3.04 mPa·s | viscosity (298.15 K, 101.3 kPa, x1 = 0.1): 5.221 ± 1.7 mPa·s and 9.782 ± 1.7 mPa·s | viscosity (298.15 K, 101.3 kPa, x1 = 0.2): 19.24 ± 1.8 mPa·s | viscosity (298.15 K, 101.3 kPa, x1 = 0.3): 39.15 ± 2.3 mPa·s | viscosity (298.15 K, 101.3 kPa, x1 = 0.4): 97.87 ± 7.9 mPa·s | viscosity (298.15 K, 101.3 kPa, x1 = 0.6): 245.4 ± 41 mPa·s | viscosity (298.15 K, 101.33 kPa, x1 = 0.0093): 1.051 ± 0.013 mPa·s | viscosity (298.15 K, 101.33 kPa, x1 = 0.0188): 1.255 ± 0.015 mPa·s | viscosity (298.15 K, 101.33 kPa, x1 = 0.0414): 1.875 ± 0.022 mPa·s | viscosity (298.15 K, 101.33 kPa, x1 = 0.069): 3.24 ± 0.036 mPa·s | viscosity (298.15 K, 101.33 kPa, x1 = 0.1028): 5.486 ± 0.059 mPa·s | viscosity (298.15 K, 101.33 kPa, x1 = 0.1469): 10.34 ± 0.1 mPa·s | viscosity (298.15 K, 101.33 kPa, x1 = 0.2054): 21.44 ± 0.19 mPa·s | viscosity (298.15 K, 101.33 kPa, x1 = 0.2884): 48.78 ± 0.43 mPa·s | viscosity (298.15 K, 101.33 kPa, x1 = 0.4026): 112.5 ± 3.1 mPa·s | viscosity (298.15 K, 101.33 kPa, x1 = 0.6059): 262.4 ± 15 mPa·s | viscosity (298.15 K, 101.33 kPa, x1 = 0.8012): 420.3 ± 30 mPa·s | viscosity (298.15 K, 101.33 kPa, x1 = 0.9438): 524.1 ± 42 mPa·s | viscosity (303.15 K, 101 kPa, x1 = 0.0501): 1.922 ± 0.11 mPa·s | viscosity (303.15 K, 101 kPa, x1 = 0.1004): 4.138 ± 0.15 mPa·s | viscosity (303.15 K, 101 kPa, x1 = 0.1509): 8.25 ± 0.23 mPa·s | viscosity (303.15 K, 101 kPa, x1 = 0.2006): 14.47 ± 0.38 mPa·s | viscosity (303.15 K, 101 kPa, x1 = 0.3008): 36.44 ± 0.89 mPa·s | viscosity (303.15 K, 101 kPa, x1 = 0.4014): 72.38 ± 1.6 mPa·s | viscosity (303.15 K, 101 kPa, x1 = 0.5011): 118.4 ± 2.9 mPa·s | viscosity (303.15 K, 101 kPa, x1 = 0.5957): 166.7 ± 4.5 mPa·s | viscosity (303.15 K, 101 kPa, x1 = 0.6968): 224.8 ± 6.8 mPa·s | viscosity (303.15 K, 101 kPa, x1 = 0.8034): 279.7 ± 9.1 mPa·s | viscosity (303.15 K, 101 kPa, x1 = 0.9012): 320.5 ± 11 mPa·s | viscosity (303.15 K, 101.3 kPa, x1 = 0.02): 1.106 mPa·s | viscosity (303.15 K, 101.3 kPa, x1 = 0.07): 2.74 mPa·s | viscosity (303.15 K, 101.3 kPa, x1 = 0.1): 4.42 ± 1.7 mPa·s and 8.008 ± 1.7 mPa·s | viscosity (303.15 K, 101.3 kPa, x1 = 0.2): 15.32 ± 1.8 mPa·s | viscosity (303.15 K, 101.3 kPa, x1 = 0.3): 31.19 ± 2.1 mPa·s | viscosity (303.15 K, 101.3 kPa, x1 = 0.4): 73.47 ± 4 mPa·s | viscosity (303.15 K, 101.3 kPa, x1 = 0.6): 162.7 ± 20 mPa·s | viscosity (303.15 K, 101.33 kPa, x1 = 0.068): 2.542 ± 0.032 mPa·s | viscosity (308.15 K, 101 kPa, x1 = 0.04): 1.455 ± 0.0086 mPa·s | viscosity (308.15 K, 101 kPa, x1 = 0.0501): 1.679 ± 0.11 mPa·s | viscosity (308.15 K, 101 kPa, x1 = 0.054): 1.795 ± 0.0098 mPa·s | viscosity (308.15 K, 101 kPa, x1 = 0.1004): 3.502 ± 0.13 mPa·s | viscosity (308.15 K, 101 kPa, x1 = 0.1509): 6.653 ± 0.19 mPa·s | viscosity (308.15 K, 101 kPa, x1 = 0.2006): 11.56 ± 0.29 mPa·s | viscosity (308.15 K, 101 kPa, x1 = 0.3008): 27.8 ± 0.63 mPa·s | viscosity (308.15 K, 101 kPa, x1 = 0.4014): 53.45 ± 1.1 mPa·s | viscosity (308.15 K, 101 kPa, x1 = 0.5011): 85.56 ± 1.9 mPa·s | viscosity (308.15 K, 101 kPa, x1 = 0.5957): 119 ± 2.8 mPa·s | viscosity (308.15 K, 101 kPa, x1 = 0.6968): 158.6 ± 4.2 mPa·s | viscosity (308.15 K, 101 kPa, x1 = 0.8034): 197.1 ± 5.6 mPa·s | viscosity (313.15 K, 101 kPa, x1 = 0.054): 1.585 ± 0.009 mPa·s | viscosity (313.15 K, 101.3 kPa, x1 = 0.02): 0.896 mPa·s | viscosity (313.15 K, 101.3 kPa, x1 = 0.2): 10.02 ± 1.7 mPa·s | viscosity (313.15 K, 101.3 kPa, x1 = 0.3): 17.89 ± 1.8 mPa·s | viscosity (313.15 K, 101.3 kPa, x1 = 0.4): 41.02 ± 2.4 mPa·s | viscosity (313.15 K, 101.3 kPa, x1 = 0.6): 88.54 ± 6.1 mPa·s | viscosity (313.15 K, 101.33 kPa, x1 = 0.0093): 0.755 ± 0.01 mPa·s | viscosity (313.15 K, 101.33 kPa, x1 = 0.0188): 0.878 ± 0.011 mPa·s | viscosity (313.15 K, 101.33 kPa, x1 = 0.019): 0.898 ± 0.012 mPa·s | viscosity (313.15 K, 101.33 kPa, x1 = 0.041): 1.28 ± 0.016 mPa·s | viscosity (313.15 K, 101.33 kPa, x1 = 0.0414): 1.25 ± 0.015 mPa·s | viscosity (313.15 K, 101.33 kPa, x1 = 0.068): 1.93 ± 0.024 mPa·s | viscosity (313.15 K, 101.33 kPa, x1 = 0.069): 1.884 ± 0.022 mPa·s | viscosity (313.15 K, 101.33 kPa, x1 = 0.1469): 5.522 ± 0.06 mPa·s | viscosity (313.15 K, 101.33 kPa, x1 = 0.2054): 10.42 ± 0.1 mPa·s | viscosity (313.15 K, 101.33 kPa, x1 = 0.2884): 21.56 ± 0.19 mPa·s | viscosity (313.15 K, 101.33 kPa, x1 = 0.4026): 44.04 ± 0.38 mPa·s | viscosity (313.15 K, 101.33 kPa, x1 = 0.6059): 95.06 ± 2.1 mPa·s | viscosity (313.15 K, 101.33 kPa, x1 = 0.8012): 143.9 ± 5.2 mPa·s | viscosity (313.15 K, 101.33 kPa, x1 = 0.9438): 175.3 ± 7.5 mPa·s | viscosity (323.15 K, 101 kPa, x1 = 0.041): 1.08 ± 0.01 mPa·s | viscosity (323.15 K, 101 kPa, x1 = 0.15): 4.27 ± 0.05 mPa·s | viscosity (323.15 K, 101 kPa, x1 = 0.34): 20.7 ± 0.32 mPa·s | viscosity (323.15 K, 101.3 kPa, x1 = 0.02): 0.747 mPa·s | viscosity (323.15 K, 101.3 kPa, x1 = 0.04): 1.063 mPa·s | viscosity (323.15 K, 101.3 kPa, x1 = 0.07): 1.604 mPa·s | viscosity (323.15 K, 101.3 kPa, x1 = 0.2): 6.501 ± 1.7 mPa·s | viscosity (323.15 K, 101.3 kPa, x1 = 0.3): 12.21 ± 1.7 mPa·s | viscosity (323.15 K, 101.3 kPa, x1 = 0.4): 24.08 ± 1.9 mPa·s | viscosity (323.15 K, 101.3 kPa, x1 = 0.6): 52.49 ± 2.5 mPa·s | viscosity (323.15 K, 101.33 kPa, x1 = 0.068): 1.469 ± 0.019 mPa·s
